From patent US20240262801A1, “COMPOUNDS HAVING 5-(2-FLUORO-6-HYDROXYPHENYL)-1,2,5-THIADIAZOLIDIN-3-ONE 1,1-DIOXIDE AS INHIBITORS OF PROTEIN KINASE PHOSPHATASE ENZYMES” (Ness Therapeutics, Inc., priority 2021, published 2024)
Read-outs that look alike come from different tables or passages of the source.

What was measured:
GST-tagged PTPN2 protein = biological target: T1, GST-tagged PTPN2 protein (Homo sapiens, UniProt P17706); assay: Primary assay of PTPN2 enzymatic activity inhibition (DiFMUP fluorescence); assay type: biochemical; settings: DiFMUP substrate 2 μM, 60 min at RT
T1 construct: purchased ActiveMotif 31592
T1 sequence (P17706 with tags, fused parts or gaps): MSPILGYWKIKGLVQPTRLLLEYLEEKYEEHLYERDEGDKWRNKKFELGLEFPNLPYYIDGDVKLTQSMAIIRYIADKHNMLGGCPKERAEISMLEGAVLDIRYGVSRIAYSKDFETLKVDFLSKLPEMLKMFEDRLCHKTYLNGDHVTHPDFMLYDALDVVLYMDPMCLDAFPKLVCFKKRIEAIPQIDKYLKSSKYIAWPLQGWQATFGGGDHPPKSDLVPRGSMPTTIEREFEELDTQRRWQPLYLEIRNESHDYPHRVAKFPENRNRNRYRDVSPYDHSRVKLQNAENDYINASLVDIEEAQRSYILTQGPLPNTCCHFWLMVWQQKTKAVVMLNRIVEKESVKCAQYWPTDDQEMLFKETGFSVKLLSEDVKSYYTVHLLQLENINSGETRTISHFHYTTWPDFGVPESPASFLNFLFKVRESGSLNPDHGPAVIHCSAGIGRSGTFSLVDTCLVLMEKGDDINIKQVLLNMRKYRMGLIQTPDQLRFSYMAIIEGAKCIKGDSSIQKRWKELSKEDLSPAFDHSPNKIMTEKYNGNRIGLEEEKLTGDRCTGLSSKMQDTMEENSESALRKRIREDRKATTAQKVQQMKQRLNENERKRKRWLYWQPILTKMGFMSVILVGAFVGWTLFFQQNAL
Procedure, shortened: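 Enzyme at 0.004 ng/μL final in 50 mM HEPES pH 7.2-7.4, 2 mM EDTA, 100 mM NaCl, BSA, 6 mM DTT; compounds preincubated 10 min at RT. DiFMUP added at 2 μM final, 60 min at RT, fluorescence read at ex 360/em 450 nm. IC50 calculated from % inhibition.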

[1] = test system: B16F10 mouse melanoma cells; assay: Tumor cells B16F10 cellular growth IFNγ-induced inhibition assay (CellTiter-Glo); assay type: cell-based; settings: for IC50: B16-F10, 72 h, 3 days incubation; for inhibition at 100 µM: B16-F10, B16F10, 100 μM compound
Procedure, shortened: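 Cells were seeded at 500/well in DMEM + 10% FBS and allowed to adhere overnight at 37° C, 5% CO2. Compounds at 1× final were added via medium with or without IFNγ (5 ng/ml in the dilution medium). After 3 days, CellTiter-Glo luminescence gave % growth inhibition versus the DMSO/IFNγ control, from which IC50 was derived.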

[2] = B16F10, + IFNγ, read-out: IC50 + IFNγ
[3] = B16F10, no IFNγ, read-out: IC50 no IFNγ
[4] = + IFNγ, read-out: % Growth Inhibition at 100 μM + IFNγ
[5] = no IFNγ, read-out: % Growth Inhibition at 100 μM no IFNγ

SMILES	IC50 (GST-tagged PTPN2 protein) [µM]	IC50 [1, 2] [µM]	IC50 [1, 3] [µM]	inhibition at 100 µM [1, 4] [%]	inhibition at 100 µM [1, 5] [%]
CC(C)(C)OC(=O)N1CCC(NC(=O)Nc2cc(O)c(N3CC(=O)NS3(=O)=O)c(F)c2)CC1 [Example 98, tert-butyl 4-[[3-fluoro-5-hydroxy-4-(1,1,4-trioxo-1,2,5-thiadiazolidin-2-yl)phenyl]carbamoyl-amino]piperidine-1-carboxylate]	0.01 to 0.05	≥ 100	≥ 100	10 to 50	10 to 50
O=C1CN(c2c(O)cc(NC(=O)NC3CCNCC3)cc2F)S(=O)(=O)N1 [Example 99, 1-[3-fluoro-5-hydroxy-4-(1,1,4-trioxo-1,2,5-thiadiazolidin-2-yl)phenyl]-3-(4-piperidyl)urea]	0.01 to 0.05	10 to 50	≥ 100	50 to 75	10 to 50
O=C1CN(c2c(O)cc(NC(=O)NCC3CNCC34CCCCC4)cc2F)S(=O)(=O)N1 (stereo not drawn) [Example 100, 1-(2-azaspiro[4.5]decan-4-ylmethyl)-3-[3-fluoro-5-hydroxy-4-(1,1,4-trioxo-1,2,5-thiadiazolidin-2-yl)phenyl]urea]	0.01 to 0.05	10 to 50	≥ 100	50 to 75	10 to 50
CC(C)(C)OC(=O)N1CC(CNC(=O)Nc2cc(O)c(N3CC(=O)NS3(=O)=O)c(F)c2)C2(CCCCC2)C1 (stereo not drawn) [Example 101, tert-butyl 4-[[[3-fluoro-5-hydroxy-4-(1,1,4-trioxo-1,2,5-thiadiazolidin-2-yl)phenyl]carbamoyl-amino]methyl]-2-azaspiro[4.5]decane-2-carboxylate]	0.01 to 0.05	50 to 100	≥ 100	50 to 75	10 to 50
CC(C)CCN1CC(CNC(=O)Nc2cc(O)c(N3CC(=O)NS3(=O)=O)c(F)c2)C2(CCCCC2)C1 (stereo not drawn) [Example 102, 1-[3-fluoro-5-hydroxy-4-(1,1,4-trioxo-1,2,5-thiadiazolidin-2-yl)phenyl]-3-[(2-isopentyl-2-azaspiro[4.5]decan-4-yl)methyl]urea]	0.005 to 0.01	≥ 100	≥ 100	10 to 50	10 to 50
O=C1CN(c2c(O)cc(NC(=O)N[C@H](CO)c3ccccc3)cc2F)S(=O)(=O)N1 [Example 103, 1-[3-fluoro-5-hydroxy-4-(1,1,4-trioxo-1,2,5-thiadiazolidin-2-yl)phenyl]-3-[(1S)-2-hydroxy-1-phenylethyl]urea]	0.005 to 0.01	< 5	≥ 100	75 to 100	10 to 50
O=C1CN(c2c(O)cc(NC(=O)NC3CCCNC3)cc2F)S(=O)(=O)N1 (stereo not drawn) [Example 104, 1-[3-fluoro-5-hydroxy-4-(1,1,4-trioxo-1,2,5-thiadiazolidin-2-yl)phenyl]-3-(3-piperidyl)urea]	< 0.005	5 to 10	≥ 100	75 to 100	10 to 50
O=C1CN(c2c(O)cc(NC(=O)NC3CCCCC3O)cc2F)S(=O)(=O)N1 (stereo not drawn) [Example 105, 1-[3-fluoro-5-hydroxy-4-(1,1,4-trioxo-1,2,5-thiadiazolidin-2-yl)phenyl]-3-(2-hydroxycyclohexyl)urea]	< 0.005	5 to 10	≥ 100	75 to 100	10 to 50
CC(C)(C)OC(=O)N1CCCC(NC(=O)Nc2cc(O)c(N3CC(=O)NS3(=O)=O)c(F)c2)C1 (stereo not drawn) [Example 106, tert-butyl 3-[[3-fluoro-5-hydroxy-4-(1,1,4-trioxo-1,2,5-thiadiazolidin-2-yl)phenyl]carbamoylamino]piperidine-1-carboxylate]	< 0.005	50 to 100	≥ 100	50 to 75	10 to 50
O=C1CN(c2c(O)cc(NC(=O)N[C@H]3CC[C@H](CO)CC3)cc2F)S(=O)(=O)N1 [Example 107, 1-[3-fluoro-5-hydroxy-4-(1,1,4-trioxo-1,2,5-thiadiazolidin-2-yl)phenyl]-3-[4-(hydroxymethyl)-cyclohexyl]urea]	< 0.005	5 to 10	≥ 100	50 to 75	10 to 50
O=C1CN(c2c(O)cc(NC(=O)N[C@@H]3c4ccccc4C[C@@H]3O)cc2F)S(=O)(=O)N1 [Example 108, 1-[3-fluoro-5-hydroxy-4-(1,1,4-trioxo-1,2,5-thiadiazolidin-2-yl)phenyl]-3-[(1R,2S)-2-hydroxyindan-1-yl]urea]	0.01 to 0.05	10 to 50	≥ 100	50 to 75	10 to 50
O=C1CN(c2c(O)cc(NC(=O)N[C@H](CO)Cc3ccccc3)cc2F)S(=O)(=O)N1 [Example 109, 1-[(1S)-1-benzyl-2-hydroxy-ethyl]-3-[3-fluoro-5-hydroxy-4-(1,1,4-trioxo-1,2,5-thiadiazolidin-2-yl)phenyl]urea]	< 0.005	10 to 50	≥ 100	50 to 75	10 to 50
CC(C)C[C@@H](CO)NC(=O)Nc1cc(O)c(N2CC(=O)NS2(=O)=O)c(F)c1 [Example 110, 1-[3-fluoro-5-hydroxy-4-(1,1,4-trioxo-1,2,5-thiadiazolidin-2-yl)phenyl]-3-[(1S)-1-(hydroxymethyl)-3-methyl-butyl]urea]	0.005 to 0.01	10 to 50	≥ 100	50 to 75	10 to 50
O=C1CN(c2c(O)cc(NC(=O)NC34CC(CO)(C3)C4)cc2F)S(=O)(=O)N1 [Example 111, 1-[3-fluoro-5-hydroxy-4-(1,1,4-trioxo-1,2,5-thiadiazolidin-2-yl)phenyl]-3-[3-(hydroxymethyl)-1-bicyclo[1.1.1]pentanyl]urea]	< 0.005	10 to 50	≥ 100	75 to 100	10 to 50
CC(C)CNC(=O)C12CC(NC(=O)Nc3cc(O)c(N4CC(=O)NS4(=O)=O)c(F)c3)(C1)C2 [Example 112, 3-[[3-fluoro-5-hydroxy-4-(1,1,4-trioxo-1,2,5-thiadiazolidin-2-yl)phenyl]carbamoylamino]-N-isobutyl-bicyclo[1.1.1]pentane-1-carboxamide]	< 0.005	50 to 100	≥ 100	10 to 50	10 to 50
